System: HHV-6 strain 7.29
Experiment: Evaluation of PCV against HHV-6 in human cord blood cells (% infected cells by immunofluorescence)
Format: cell-based, human herpesvirus 6
Experimental: An assay method involving the inhibition of a cytopathic effect in human cord blood cells is conducted at a dose range of 0.01 μM-100 μM. The general procedure is as described in Chapter 23 of ‘Human Herpesvirus; Epidemiology, Molecular Biology and Clinical Pathology—Conference Proceedings, Ablashi D. V. (Ed).
^aDilutions of the compounds were added 1 hr after viral inoculation of human cord blood. The % infected cells was measured by anti-complement immunofluorescence (ACIF). All numbers are averages of results of cord blood from 3 donors and triplicate readings were performed on each sample. Each reading represents actual counting of 3 fields.
Human mononuclear cells were isolated from umbilical cord blood and inoculated in triplicate with the test virus. One hour later, duplicate dilutions of the compound were added, resulting in 0, 5, 10, 50, or 100 μM final concentrations. After 3-6 days, cellls were removed and tested for the presence of virus by indirect immunofluorescence (IFA) using type specific monoclonal antibodies. Three fields of 100 cells each were read from each sample.

Nc1nc2c(ncn2CCC(CO)CO)c(=O)[nH]1 [PCV, penciclovir]
inhibition at 5 µM (Human betaherpesvirus 6, 144 h, PCV 5 μM, Day 6, read-out: % Inhib Day 6): -5%
inhibition at 10 µM (Human betaherpesvirus 6, 144 h, PCV 10 μM, Day 6, read-out: % Inhib Day 6): -7%
inhibition at 50 µM (Human betaherpesvirus 6, 144 h, PCV 50 μM, Day 6, read-out: % Inhib Day 6): 12%
inhibition at 100 µM (Human betaherpesvirus 6, 144 h, PCV 100 μM, Day 6, read-out: % Inhib Day 6): 29%
% Inf Day 4 (PCV 5 μM, Day 4, compound added 1 hr after viral inoculation): 19%
% Inf Day 6 (PCV 5 μM): 42%
% Inf Day 4 (PCV 10 μM, Day 4): 20%
% Inf Day 6 (PCV 10 μM): 43%
% Inf Day 6 (PCV 50 μM): 35%
% Inf Day 6 (PCV 100 μM): 38%

From patent US6683084B1, “Use of 2-amino purine derivatives for the treatment and prophylaxis of human herpes virus 6 infections” (Novartis International Pharmaceutical Ltd., priority 1993, dated 2004)
